Test results published in patent US20250268903A1, “RXFP1 AGONISTS” (BRISTOL-MYERS SQUIBB COMPANY, priority 2021, published 2025).

target: T1, human RXFP1 (Homo sapiens, UniProt Q9HBX9); test: hRXFP1 HEK293 cAMP assay (HTRF); assay type: cell-based; details: HEK293 cells stably expressing human RXFP1, 30 min at room temperature
T1 construct: expressed in transfected cells
T1 sequence (Q9HBX9 1-757): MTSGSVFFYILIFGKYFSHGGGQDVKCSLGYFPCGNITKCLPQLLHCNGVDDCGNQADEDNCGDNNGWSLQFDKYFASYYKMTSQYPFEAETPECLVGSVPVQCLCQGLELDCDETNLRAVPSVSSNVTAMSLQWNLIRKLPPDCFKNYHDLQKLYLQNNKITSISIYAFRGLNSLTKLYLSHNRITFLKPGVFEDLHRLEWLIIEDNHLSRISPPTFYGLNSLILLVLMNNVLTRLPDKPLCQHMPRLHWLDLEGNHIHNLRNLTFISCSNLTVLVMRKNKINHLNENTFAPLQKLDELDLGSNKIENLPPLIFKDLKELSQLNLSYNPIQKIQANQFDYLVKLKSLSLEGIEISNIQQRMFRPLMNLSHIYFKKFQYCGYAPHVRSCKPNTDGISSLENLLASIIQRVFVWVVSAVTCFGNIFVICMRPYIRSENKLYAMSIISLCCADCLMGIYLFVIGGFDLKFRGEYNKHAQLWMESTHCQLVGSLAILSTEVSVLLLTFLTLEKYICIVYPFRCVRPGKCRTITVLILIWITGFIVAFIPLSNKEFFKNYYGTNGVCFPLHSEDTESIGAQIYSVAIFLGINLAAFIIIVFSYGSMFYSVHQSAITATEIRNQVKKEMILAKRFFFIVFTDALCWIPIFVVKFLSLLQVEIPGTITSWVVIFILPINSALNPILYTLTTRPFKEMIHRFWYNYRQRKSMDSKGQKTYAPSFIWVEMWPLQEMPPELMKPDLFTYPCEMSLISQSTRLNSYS
Method in brief: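 Potency and activity come from a four-parameter logistic fit of cAMP against compound concentration, tested from 0.010 nM up to 50 μM. The assay uses HEK293 cells stably expressing human RXFP1, incubated 30 min at ambient temperature with phosphodiesterase inhibitor IBMX present.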

Row | EC50 | SMILES
1 | 81.2 nM | COc1ccc(CCC(=O)N2CCC(O)CC2)cc1C(=O)N[C@H]1[C@@H](C(=O)Nc2ccc(F)c(C(F)(F)F)c2)[C@H]2CC[C@@H]1/C2=C\C(F)(F)F [Example 320]
2 | 714 nM | COc1ccc(S(=O)(=O)N2CCN(C)CC2CO)cc1C(=O)N[C@H]1[C@@H](C(=O)Nc2ccc(F)c(C(F)(F)F)c2)[C@H]2CC[C@@H]1/C2=C\C(F)(F)F (stereo partly shown) [Example 218]
3 | 4010 nM | COc1ccc(C2CC2C(=O)N2CCC(O)CC2)cc1C(=O)N[C@H]1[C@@H](C(=O)Nc2ccc(F)c(C(F)(F)F)c2)[C@H]2CC[C@@H]1/C2=C\C(F)(F)F (single isomer, unassigned) [Example 326]
4 | 2000 nM | COc1ccc(C)cc1C(=O)N[C@@H]1C2CCC(C2=C(C)C)[C@@H]1C(=O)Nc1ccc(F)c(C(F)(F)F)c1 (stereo partly drawn) [Example 360, (2S,3R)-N-[4-fluoro-3-(trifluoromethyl)phenyl]-3-(2-methoxy-5-methylbenzamido)-7-(propan-2-ylidene)bicyclo[2.2.1] heptane-2-carboxamide]
5 | 117 nM | COc1ccc(CN2C(=O)CN(CCO)C2=O)cc1C(=O)N[C@H]1[C@@H](C(=O)Nc2ccc(F)c(C(F)(F)F)c2)[C@H]2CC[C@@H]1/C2=C\C1CC1 [Example 294, (1R,2S,3R,4R,7Z)-7-(cyclopropyl-methylidene)-N-[4-fluoro-3-(trifluoromethyl)phenyl]-3-(5-{[3-(2-hydroxyethyl)-2,5-dioxoimidazolidin-1-yl]methyl}-2-methoxybenzamido) bicyclo[2.2.1]heptane-2-carboxamide]
6 | 17.7 nM | COc1ccc(C2CC3CC(CO)CC32)cc1C(=O)N[C@H]1[C@@H](C(=O)Nc2ccc(F)c(C(F)(F)F)c2)[C@H]2CC[C@@H]1/C2=C\C1CC1 (single isomer, unassigned) [Example 350]
7 | 2.22 nM | COc1ccc(COCC2CC(O)C2)cc1C(=O)N[C@H]1[C@@H](C(=O)Nc2ccc(F)c(C(F)(F)F)c2)[C@H]2CC[C@@H]1/C2=C\C1CC1 (stereo partly drawn) [Example 291, (1R,2S,3R,4R,7Z)-7-(cyclopropyl-methylidene)-N-[4-fluoro-3-(trifluoromethyl)phenyl]-3-(5-{[(3-hydroxycyclobutyl)methoxy]methyl}-2-methoxybenzamido) bicyclo[2.2.1] heptane-2-carboxamide]
8 | 18.5 nM | COc1ccc(/C=C/C(=O)N2CCO[C@@H](CO)C2)cc1C(=O)N[C@H]1[C@@H](C(=O)Nc2ccc(F)c(C(F)(F)F)c2)[C@H]2CC[C@@H]1/C2=C\C1CC1 [Example 307, (1R,2S,3R,4R,7Z)-7-(cyclopropyl-methylidene)-N-[4-fluoro-3-(trifluoromethyl)phenyl]-3-{5-[(1E)-3-[(2R)-2-(hydroxymethyl)morpholin-4-yl]-3-oxoprop-1-en-1-yl]-2-methoxybenzamido} bicyclo[2.2.1]heptane-2-carboxamide]
9 | 11.9 nM | COc1ccc(C(=O)NCCS(C)(=O)=O)cc1C(=O)N[C@H]1[C@@H](C(=O)Nc2ccc(F)c(C(F)(F)F)c2)[C@H]2CC[C@@H]1/C2=C\C1CC1 [Example 253, N3-[(1R,2R, 3S,4R,7Z)-7-(cyclopropylmethyl-idene)-3-{[4-fluoro-3-(trifluoromethyl)phenyl]carbamoyl}bicyclo[2.2.1]heptan-2-yl]-N1-(2-methanesulfonylethyl)-4-methoxybenzene-1,3-dicarboxamide]
10 | 4960 nM | COc1ccc(C2CCCC(N3CC(F)(F)C3)C2)cc1C(=O)N[C@H]1[C@@H](C(=O)Nc2ccc(F)c(C(F)(F)F)c2)[C@H]2CC[C@@H]1/C2=C\C(F)(F)F (stereo partly drawn) [Example 355, (1R,2S,3R,4R,7Z)-3-[5-13-(3,3-difluoroazetidin-1-yl)cyclohexyl]-2-methoxybenzamido 3-N-[4-fluoro-3-(trifluoromethyl)phenyl]-7-(2,2,2-trifluoroethylidene) bicyclo[2.2.1] heptane-2-carboxamide]

The next lines start with the compound.

Row | SMILES | EC50
11 | COc1ccc(COCCC(=O)O)cc1C(=O)N[C@@H]1C2CCC(/C2=C/c2ccccc2)[C@@H]1C(=O)Nc1ccc(F)c(C(F)(F)F)c1 (stereo partly drawn) [Example 28, 3-[(3-{[(2R,3S,7Z)-3-{[4-fluoro-3-(trifluoromethyl)phe-nyl]carbamoyl}-7-(phenylmethylidene)bicyclo[2.2.1]heptan-2-yl]carbamoyl}-4-methoxyphenyl)meth-oxy]propanoic acid] | 56 nM
12 | COc1ccc(CCN2CCOC2=O)cc1C(=O)NC1C2CCC(/C2=C/C2CCC2)[C@@H]1C(=O)Nc1ccc(F)c(C(F)(F)F)c1 (stereo partly shown) [Example 191, (7Z)-7-(cyclobutylmethyl-idene)-N-[4-fluoro-3-(trifluoromethyl)phe-nyl]-3-{2-methoxy-5-[2-(2-oxo-1,3-oxazolidin-3-yl)ethyl]benzamido} bicyclo[2.2.1]heptane-2-carboxamide] | 40 nM
13 | COc1ccc(C#CCCCCOC(=O)NC2CCC2)cc1C(=O)N[C@@H]1C2CCC(/C2=C/C(F)(F)F)[C@@H]1C(=O)Nc1ccc(F)c(C(F)(F)F)c1 (stereo partly drawn) [Example 81, 6-(3-{[(2R,3S,7Z)-3-{[4-fluoro-3-(trifluoromethyl)phe-nyl]carbamoyl}-7-(2,2,2-trifluoroethylidene)bi-cyclo[2.2.1]heptan-2-yl]carbamoyl}-4-methoxyphenyl)hex-5-yn-1-yl N-cyclobutylcarbamate] | 373 nM
14 | COc1ccc(/C=C/C(=O)N(C)CCO)cc1C(=O)N[C@@H]1C2CCC(/C2=C/C(F)(F)F)[C@@H]1C(=O)Nc1ccc(F)c(C(F)(F)F)c1 (stereo partly drawn) [Example 126, (2S,3R,7Z)-N-[4-fluoro-3-(trifluoromethyl)phe-nyl]-3-{5-[(1E)-2-[(2-hydroxyethyl)(meth-yl)carbamoyl]eth-1-en-1-yl]-2-methoxybenzamido}-7-(2,2,2-trifluoroethylidene)bi-cyclo[2.2.1]heptane-2-carboxamide] | 35 nM
15 | COC(=O)C1CC2(C1)CC(c1ccc(OC)c(C(=O)N[C@@H]3C4CCC(/C4=C/C(F)(F)F)[C@@H]3C(=O)Nc3ccc(F)c(C(F)(F)F)c3)c1)C2 (single isomer, unassigned) [Example 150] | 715 nM
16 | COC(=O)OCC/C=C/c1ccc(OC)c(C(=O)N[C@H]2[C@@H](C(=O)Nc3ccc(F)c(C(F)(F)F)c3)[C@H]3CC[C@@H]2C3=C(C)C)c1 [Example 33, (E)-4-(3-(((1R,2R,3S,4R)-3-((4-fluoro-3-(trifluoromethyl)phenyl)carbamoyl)-7-(propan-2-ylidene)bicyclo[2.2.1]heptan-2-yl)carbamoyl)-4-methoxyphenyl) but-3-en-1-yl methyl carbonate] | 580 nM
17 | COc1ccc([C@H]2C[C@@H](O)C2)cc1C(=O)NC1C2CCC(/C2=C/C2CC2)[C@@H]1C(=O)Nc1ccc(F)c(C(F)(F)F)c1 (stereo partly drawn) [Example 147, (2S,3R,7Z)-7-(cyclopropylmethyli-dene)-N-[4-fluoro-3-(trifluoromethyl)phe-nyl]-3-{2-methoxy-5-[(1r,3r)-3-hydroxycyclobutyl]benzamido}bicyclo [2.2.1]heptane-2-carboxamide] | 21 nM
18 | COc1cc(CN2C(=O)CNC2=O)ccc1C(=O)N[C@@H]1C2CCC(/C2=C/C2CC2)[C@@H]1C(=O)Nc1ccc(F)c(C(F)(F)F)c1 (stereo partly drawn) [Example 25, (2S,3R,7Z)-7-(cyclopropylmethyli-dene)-3-{4-[(2,5-dioxoimidazolidin-1-yl)methyl]-2-methoxybenzamido}-N-[4-fluoro-3-(trifluoromethyl)phe-nyl]bicyclo[2.2.1] heptane-2-carboxamide] | 2040 nM
19 | COc1ccc(CC2CCOCC2)cc1C(=O)NC1C2CCC(/C2=C/C2CCC2)[C@@H]1C(=O)Nc1ccc(F)c(C(F)(F)F)c1 (stereo partly shown) [Example 194, (7Z)-7-(cyclobutylmethyli-dene)-N-[4-fluoro-3-(trifluoromethyl)phe-nyl]-3-{2-methoxy-5-[(oxan-4-yl)methyl]benzamido} bicyclo[2.2.1]hept-ane-2-carboxamide] | 76 nM
20 | COc1ccc(S(=O)(=O)N2CCOCC2)cc1C(=O)NC1C2CCC(/C2=C/C(F)(F)F)[C@@H]1C(=O)Nc1ccc(F)c(C(F)(F)F)c1 (stereo partly drawn) [Example 199, (2S,3R,7Z)-N-[4-fluoro-3-(trifluoromethyl)phe-nyl]-3-[2-methoxy-5-(morpholine-4-sulfonyl)benzamido]-7-(2,2,2-triflurooethylidene)bi-cyclo[2.2.1]heptane-2-carboxamide] | 719 nM
21 | COc1ccc(CCCN(C(=O)OC(C)(C)C)C2CCC2)cc1C(=O)N[C@@H]1C2CCC(/C2=C/C(F)(F)F)[C@@H]1C(=O)Nc1ccc(F)c(C(F)(F)F)c1 (stereo partly shown) [Example 120] | 304 nM
22 | COc1ccc(CCCNC(=O)C2CCOCC2)cc1C(=O)N[C@@H]1C2CCC(/C2=C/C(F)(F)F)[C@@H]1C(=O)Nc1ccc(F)c(C(F)(F)F)c1 (stereo partly drawn) [Example 115, N-[3-(3-{[(2R,3S,7Z)-3-{[4-fluoro-3-(trifluoromethyl)phe-nyl]carbamoyl}-7-(2,2,2-trifluoroethylidene)bi-cyclo[2.2.1]heptan-2-yl]carbamoyl}-4-methoxyphenyl)pro-pyl]oxane-4-carboxamide] | 536 nM
